Results as given in patent US20250352517A1, “THERAPEUTIC OR PROPHYLACTIC AGENT FOR COVID19 WHICH COMPRISES SELENONEINE” (National University Corporation Chiba University, priority 2021, published 2025).
pIC50: −log10 of the molar value.

Legend:
Type in all cases: biochemical
[1] = target: T1, papain (Carica papaya, UniProt P00784); assay: Inhibitory activity against papain activity (Bz-Arg-MCA fluorescent substrate); conditions: 10 μg/ml papain, 15 min preincubation, 37° C., pH 7.4, 10 μM Bz-Arg-MCA; from FIG. 5
T1 construct: purchased Sigma-Aldrich Japan
T1 sequence (P00784 134-345): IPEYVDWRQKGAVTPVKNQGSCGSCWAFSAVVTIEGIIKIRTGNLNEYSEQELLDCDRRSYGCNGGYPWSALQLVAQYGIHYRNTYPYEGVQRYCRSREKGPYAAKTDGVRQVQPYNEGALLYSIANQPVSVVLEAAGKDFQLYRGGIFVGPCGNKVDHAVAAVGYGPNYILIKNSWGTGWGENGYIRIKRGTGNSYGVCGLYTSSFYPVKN
Method: Thereafter, 10 μM Bz-Arg-MCA was added to the reaction solution, and changes in the fluorescence intensity caused by cleavage of Bz-Arg-MCA were observed over time using a fluorometer.
Thereafter, 10 μM Bz-Arg-MCA was added to the reaction solution, and changes in the fluorescence intensity caused by cleavage of Bz-Arg-MCA were measured using a fluorometer, to investigate the inhibitory activity.

[2] = target: T2, M^pro of SARS-COV2 (Severe acute respiratory syndrome coronavirus 2, UniProt P0DTD1); assay: Inhibitory activity against M^pro of SARS-COV2 (Ac-Abu-Tle-Leu-Gln-MCA fluorescent substrate), Example 4; conditions: 2 μg/ml M^pro, 5 min preincubation
Method: Thereafter, 10 μM Ac-Abu-Tle-Leu-Gln-MCA was added to the reaction solution, and changes in the fluorescence intensity caused by cleavage of Ac-Abu-Tle-Leu-Gln-MCA were measured using a fluorometer, to investigate the inhibitory activity (FIG. 8). In order to provide a control, changes in the fluorescence intensity were measured under the same conditions except that no inhibitory compound was added.
Ac-Abu-Tle-Leu-Gln-MCA is degraded by M^pro, to produce a fluorescent substance as follows. The production of the fluorescent substance is suppressed by the action of an M^pro-inhibiting compound.
Thereafter, 10 μM Ac-Abu-Tle-Leu-Gln-MCA was added to the reaction solution, and changes in the fluorescence intensity caused by cleavage of Ac-Abu-Tle-Leu-Gln-MCA were measured using a fluorometer to measure the fluorescence intensity, to determine an inhibition curve (FIG. 8).

[3] = target: T2, M^pro of SARS-COV2; assay: Inhibitory activity against M^pro of SARS-COV2 at 1 μM test compound, Example 5; conditions: 2 μg/ml M^pro, measured 1 minute after addition, FIG. 10
Method: The M^pro was introduced into a plasmid having GST and a histidine tag (FIG. 6), and the resulting plasmid was used for transformation of the E. coli BL21 (DE3) strain. The E. coli BL21 (DE3) strain was cultured at 37° C. to allow expression of M^pro protein. The cell bodies were recovered, and M^pro protein was purified using a binding agent for the histidine tag. The GST and the histidine tag were removed by autodigestion of M^pro and human rhinovirus 3C protease (HRV), and undigested M^pro and HRV were removed using a binding agent for the histidine tag, to obtain a purified sample of M^pro protein. […]
After dissolving 2 μg/ml M^pro and 1 μM test compound in 50 mM Tris-HCl (pH 7.4) kept at 37° C., preincubation was carried out for 5 minutes. Thereafter, 10 μM Ac-Abu-Tle-Leu-Gln-MCA was added to the reaction solution, and the fluorescence intensity resulting from cleavage of Ac-Abu-Tle-Leu-Gln-MCA was measured using a fluorometer, to measure the inhibitory activity (FIG. 10). […] When the fluorescence intensity observed in the case without addition of a test compound was taken as 100, the fluorescence intensity measured 1 minute after the addition of the test compound was about 20% in the case of selenoneine.

O=c1c2ccccc2[se]n1-c1ccccc1 [Ebselen, ebselen, reference compound]
pIC50 [1]: 5.30

C[N+](C)(C)C(Cc1cnc([SeH])[nH]1)C(=O)O [Selenoneine, 2-selenyl-Nα,Nα,Nα-trimethyl-L-histidine]
pIC50 [1]: 6.60 | pIC50 ([2]; 37° C., pH 7.4, 10 μM Ac-Abu-Tle-Leu-Gln-MCA, read-out: IC50 value calculated from the regression curve): 6.27 | changes in the fluorescence intensity compared with control without inhibitory compound ([2]; 5 μM compound, FIG. 8): lower than that in the case where no inhibitory compound was added | fluorescence intensity (case without test compound taken as 100) [3]: about 20%
